Test system: newborn Swiss mice
Assay: Experiment I: carcinogenicity in newborn mice, benz(a)anthracene vs its K region epoxide (s.c. injection, tumour incidence to 70-75 weeks)
Source text: Br. J. Cancer (1975) 31, 182 THE CARCINOGENICITY OF POLYCYCLIC HYDROCARBON EPOXIDES IN NEWBORN MICE P. L. GROVER, P. SIMS, B. C. V. MITCHLEY AND F. J. C. ROE From the Chester Beatty Research Institute, Institute of Cancer Research, Royal Cancer Hospital, Fulham Road, London, SW3 6JB Received 9 August 1974. […] THE HYPOTHESIS that the carcino- genicity of polycyclic hydrocarbons is associated with the formation of epoxide metabolites (Grover, Hewer and Sims, 1971, 1972; Keysell et al., 1973) is sup- ported by some experimental evidence but remains unproven. […] The epoxides can also act as alkylating agents (Grover and Sims, 1970) and as mutagens (Ames, Sims and Grover, 1972; Huberman et al., 1971; Cookson, Sims and Grover, 1971; Fahmy and Fahmy, 1973). […] The newborn mouse, which is susceptible to carcinogenic polycyclic hydrocarbons (Roe, Rowson and Salaman, 1961; Roe, Mitchley and Walters, 1963; Walters and Roe, 1964, 1966) can be considered as a convenient source of several types of rapidly dividing cells. Consequently we have tested the K region epoxides derived from phenanthrene, benz(a)anthracene, 7-methylbenz(a)anthracene, dibenz(a,h)- anthracene, chrysene and 3-methylchol- anthrene, together with some of the CARCINOGENICITY OF POLYCYCLIC HYDROCARBON EPOXIDES IN MICE 183 parent hydrocarbons, for carcinogenicity using newborn mice. This paper presents the results that were obtained in these experiments. MATERIALS AND METHODS The polycyclic hydrocarbon epoxides, phenanthrene 9,10-oxide, benz(a)anthracene 5,6-oxide, 7-methylbenz(a)anthracene 5,6- oxide, dibenz(a,h)anthracene 5,6-oxide, chry- sene 5,6-oxide and 3-methylcholanthrene 11,12-oxide were prepared from the parent hydrocarbons (Newman and Blum, 1964; Boyland and Sims, 1965; Sims 1966). Two experiments were undertaken fol- lowing similar protocols. For each experi- ment Swiss mice from a specific pathogen- free colony were time mated so as to produce a large number of litters over the course of 2 or 3 days. […] Test compounds were suspended in poly- ethylene glycol (PEG) 400 and injections of 0-02 ml of the suspension were given by introducing a 25 gauge hypodermic needle through the skin near the root of the tail and threading it subcutaneously to deliver the injected material in the interscapular region. Injections were given to every mouse on the first day or first 3 days of life. The details of treatments and numbers of mice of each sex in each group are shown in Table I (Experiment I) and Table II (Ex- periment II). Surviving mice were weaned when they w ere 21 days old. Thereafter, males and females w ere separated and housed 6 per cage in metal boxes. A mixture of sawdust and wood shavings was used as bedding. The mice were fed on a standard cubed diet (Formulation 86 from C. Holdman and Sons (Plow co Feeds), Byers Lane, South Godstone, Surrey) and water was given ad libitum. Mice were inspected daily, and at weekly intervals they were weighed and palpated for tumours and other lesions. […] The experiment was terminated when surviving mice were between 70 and 75 weeks old. A full routine post- mortem examination, which included disten- sion of the urinary bladder with fixative, was carried out. The number of lesions thought to be neoplasms and the size of the largest such lesion in each organ affected were recorded. All tissues with suspected neoplasms were fixed in Bouin's solution. Haematoxylin and eosin stained 5 µm paraffin wax sections were prepared and examined microscopically. RESULTS The results of the two experiments in terms of tumour incidence are sum- marized in […].

[1] = females, 50 µg per treatment s.c. on Days 0, 1 and 2
[2] = females, 50 µg per treatment s.c. on Days 0, 1 and 2 in PEG 400
[3] = females, 100 µg per treatment s.c. on Days 0, 1 and 2
[4] = females, 100 µg per treatment s.c. on Days 0, 1 and 2 in PEG 400
[5] = females, 200 µg per treatment s.c. on Days 0, 1 and 2
[6] = females, 200 µg per treatment s.c. on Days 0, 1 and 2 in PEG 400
[7] = males, 50 µg per treatment s.c. on Days 0, 1 and 2
[8] = males, 50 µg per treatment s.c. on Days 0, 1 and 2 in PEG 400
[9] = males, 100 µg per treatment s.c. on Days 0, 1 and 2
[10] = males, 100 µg per treatment s.c. on Days 0, 1 and 2 in PEG 400
[11] = males, 200 µg per treatment s.c. on Days 0, 1 and 2
[12] = males, 200 µg per treatment s.c. on Days 0, 1 and 2 in PEG 400

c1ccc2c(c1)-c1cc3ccccc3cc1[C@H]1O[C@@H]21 [Benz(a)anthracene 5,6-oxide, benz(a)anthracene 5,6-oxide]
incidence of liver tumours in males (2 higher levels (Groups D and E, 3 x 200 and 3 x 100 µg)): increase in incidence
No. of mice examined at p.m. at termination of experiment (70th-75th week) with liver tumours [1]: 0
No. of mice examined at p.m. at termination of experiment (70th-75th week) with lung tumours [1]: 2
No. of mice examined at p.m. at termination of experiment (70th-75th week) with multiple liver tumours [1]: 0
No. of mice examined at p.m. at termination of experiment (70th-75th week) with multiple lung tumours [1]: 0
No. of mice examined at p.m. at termination of experiment (70th-75th week) with other tumours [1]: 2
No. of mice examined at p.m. from 50th-70th week with liver tumours [1]: 0
No. of mice examined at p.m. from 50th-70th week with lung tumours [1]: 0
No. of mice examined at p.m. from 50th-70th week with other tumours [1]: 1
No. of survivors at 50 weeks [2]: 18
No. of survivors at 70 weeks [2]: 16
No. of mice examined at p.m. at termination of experiment (70th-75th week) with liver tumours [3]: 0
No. of mice examined at p.m. at termination of experiment (70th-75th week) with lung tumours [3]: 6
No. of mice examined at p.m. at termination of experiment (70th-75th week) with multiple liver tumours [3]: 0
No. of mice examined at p.m. at termination of experiment (70th-75th week) with multiple lung tumours [3]: 5
No. of mice examined at p.m. at termination of experiment (70th-75th week) with other tumours [3]: 1
No. of mice examined at p.m. from 50th-70th week with liver tumours [3]: 0
No. of mice examined at p.m. from 50th-70th week with lung tumours [3]: 0
No. of mice examined at p.m. from 50th-70th week with other tumours [3]: 0
No. of survivors at 50 weeks [4]: 24
No. of survivors at 70 weeks [4]: 22
No. of mice examined at p.m. at termination of experiment (70th-75th week) with liver tumours [5]: 2
No. of mice examined at p.m. at termination of experiment (70th-75th week) with lung tumours [5]: 1
No. of mice examined at p.m. at termination of experiment (70th-75th week) with multiple liver tumours [5]: 0
No. of mice examined at p.m. at termination of experiment (70th-75th week) with multiple lung tumours [5]: 0
No. of mice examined at p.m. at termination of experiment (70th-75th week) with other tumours [5]: 0
No. of mice examined at p.m. from 50th-70th week with liver tumours [5]: 0
No. of mice examined at p.m. from 50th-70th week with lung tumours [5]: 0
No. of mice examined at p.m. from 50th-70th week with other tumours [5]: 0
No. of survivors at 50 weeks [6]: 21
No. of survivors at 70 weeks [6]: 20
incidence of the 2 kinds of tumour (liver, lung) compared with vehicle group (lowest level of dosage, Group F, 3 x 50 µg): not very different from that in Group G
No. of mice examined at p.m. at termination of experiment (70th-75th week) with liver tumours [7]: 4
No. of mice examined at p.m. at termination of experiment (70th-75th week) with lung tumours [7]: 5
No. of mice examined at p.m. at termination of experiment (70th-75th week) with multiple liver tumours [7]: 1
No. of mice examined at p.m. at termination of experiment (70th-75th week) with multiple lung tumours [7]: 1
No. of mice examined at p.m. at termination of experiment (70th-75th week) with other tumours [7]: 0
No. of mice examined at p.m. from 50th-70th week with liver tumours [7]: 0
No. of mice examined at p.m. from 50th-70th week with lung tumours [7]: 0
No. of mice examined at p.m. from 50th-70th week with other tumours [7]: 0
No. of survivors at 50 weeks [8]: 16
No. of survivors at 70 weeks [8]: 16
No. of mice examined at p.m. at termination of experiment (70th-75th week) with liver tumours [9]: 12
No. of mice examined at p.m. at termination of experiment (70th-75th week) with lung tumours [9]: 3
No. of mice examined at p.m. at termination of experiment (70th-75th week) with multiple liver tumours [9]: 8
No. of mice examined at p.m. at termination of experiment (70th-75th week) with multiple lung tumours [9]: 0
No. of mice examined at p.m. at termination of experiment (70th-75th week) with other tumours [9]: 0
No. of mice examined at p.m. from 50th-70th week with liver tumours [9]: 0
No. of mice examined at p.m. from 50th-70th week with lung tumours [9]: 1
No. of mice examined at p.m. from 50th-70th week with other tumours [9]: 0
No. of survivors at 50 weeks [10]: 27
No. of survivors at 70 weeks [10]: 26
No. of mice examined at p.m. at termination of experiment (70th-75th week) with liver tumours [11]: 5
No. of mice examined at p.m. at termination of experiment (70th-75th week) with lung tumours [11]: 2
No. of mice examined at p.m. at termination of experiment (70th-75th week) with multiple liver tumours [11]: 4
No. of mice examined at p.m. at termination of experiment (70th-75th week) with multiple lung tumours [11]: 1
No. of mice examined at p.m. at termination of experiment (70th-75th week) with other tumours [11]: 2
No. of mice examined at p.m. from 50th-70th week with liver tumours [11]: 2
No. of mice examined at p.m. from 50th-70th week with lung tumours [11]: 0
No. of mice examined at p.m. from 50th-70th week with other tumours [11]: 0
No. of survivors at 50 weeks [12]: 21
No. of survivors at 70 weeks [12]: 18
activity in increasing liver and lung tumour incidence compared with parent compound (parenteral administration during early neonatal life): less active than its parent compound

Reference: paper PMC2009384, “The carcinogenicity of polycyclic hydrocarbon epoxides in newborn mice” (British Journal of Cancer, 1975)
